# Source: PubChem BioAssay AID1745844 (Carcinogenic Potency Database (CPDB), 2022)
# “And” between values parts separate entries of the source, which are not always exact repeats. Identical values can stand only once. The source made the active and inactive calls. No rule for the calls is given here.
# System: rodent lifetime carcinogenesis bioassay, tumor incidence TD50
# Assay: chronic cancer bioassays in animals – CPDB, compiled studies (AID 1745844)
# [1] = mouse, strain B6AKF1, females, oral dosing, site: any site (literature study), lesion: several types, types named in the paper, dosed 76 weeks, study length 76 weeks
# [2] = mouse, strain B6AKF1, females, oral dosing, site: liver, lesion: hepatoma, dosed 76 weeks, study length 76 weeks
# [3] = mouse, strain B6AKF1, females, oral dosing, site: lung, lesion: adenoma, dosed 76 weeks, study length 76 weeks
# [4] = mouse, strain B6AKF1, males, oral dosing, site: any site (literature study), lesion: several types, types named in the paper, dosed 76 weeks, study length 76 weeks
# [5] = mouse, strain B6AKF1, males, oral dosing, site: liver, lesion: hepatoma, dosed 76 weeks, study length 76 weeks
# [6] = mouse, strain B6AKF1, males, oral dosing, site: lung, lesion: adenoma, dosed 76 weeks, study length 76 weeks
# [7] = mouse, strain B6C3F1, females, oral dosing, site: liver, lesion: hepatoma, dosed 76 weeks, study length 76 weeks
# [8] = mouse, strain B6C3F1, males, oral dosing, site: any site (literature study), lesion: several types, types named in the paper, dosed 76 weeks, study length 76 weeks
# [9] = mouse, strain B6C3F1, males, oral dosing, site: liver, lesion: hepatoma, dosed 76 weeks, study length 76 weeks
compound,measurement,setting,value
CC(=O)CN(CC(C)=O)N=O,TD50,"rat, strain Fischer 344, females, by gavage, site: liver, lesion: hepatocellular carcinoma, dosed 30 weeks, study length 95 weeks",0.684 mg/kg/day
same,TD50,"rat, strain Fischer 344, females, in drinking water, site: liver, lesion: hemangiosarcoma, dosed 50 weeks, study length 75 weeks",0.892 mg/kg/day
same,TD50,"rat, strain Fischer 344, females, in drinking water, site: liver, lesion: hepatocellular carcinoma, dosed 50 weeks, study length 75 weeks",0.582 mg/kg/day
same,TD50,"rat, strain Fischer 344, females, in drinking water, site: liver, lesion: several types, types named in the paper, dosed 50 weeks, study length 75 weeks",0.232 mg/kg/day
same,TD50,"rat, strain Fischer 344, females, in drinking water, site: lung, lesion: several types, types named in the paper, dosed 50 weeks, study length 75 weeks",0.399 mg/kg/day
same,TD50,"rat, strain MRC-Wistar, males, by gavage, site: colorectum, lesion: one or several types, types not named, dosed 104 weeks, study length 104 weeks",1.56 mg/kg/day
same,TD50,"rat, strain MRC-Wistar, males, by gavage, site: liver, lesion: one or several types, types not named, dosed 104 weeks, study length 104 weeks",1.56 mg/kg/day
same,TD50,"rat, strain MRC-Wistar, males, by gavage, site: lung, lesion: one or several types, types not named, dosed 104 weeks, study length 104 weeks",1.92 mg/kg/day
same,TD50,"rat, strain MRC-Wistar, males, by gavage, site: nasal cavity, lesion: one or several types, types not named, dosed 104 weeks, study length 104 weeks",1.56 mg/kg/day
same,TD50,"rat, strain MRC-Wistar, males, by gavage, site: prostate, lesion: carcinoma, dosed 74 weeks, study length 74 weeks",1.53 mg/kg/day
same,TD50,"rat, strain MRC-Wistar, males, by gavage, site: prostate, lesion: squamous-cell carcinoma, keratinized, dosed 104 weeks, study length 104 weeks",2.41 mg/kg/day
same,TD50,"rat, strain MRC-Wistar, males, by gavage, site: thyroid gland, lesion: one or several types, types not named, dosed 104 weeks, study length 104 weeks",3.16 mg/kg/day
same,TD50,"rat, strain MRC-Wistar, males, by gavage, site: urethra, lesion: several types, types named in the paper, dosed 104 weeks, study length 104 weeks",0.891 mg/kg/day
same,TD50,"rat, strain MRC, females, by gavage, site: any site (literature study), lesion: one or several types, types not named, dosed 73 weeks, study length 77 weeks",0.171 mg/kg/day
same,TD50,"rat, strain MRC, females, by gavage, site: liver, lesion: several types, types named in the paper, dosed 73 weeks, study length 77 weeks",0.283 mg/kg/day
same,TD50,"rat, strain MRC, females, by gavage, site: lung, lesion: adenoma, dosed 73 weeks, study length 77 weeks",14 mg/kg/day
same,TD50,"rat, strain MRC, females, by gavage, site: nasal and paranasal cavity, lesion: several types, types named in the paper, dosed 73 weeks, study length 77 weeks",14 mg/kg/day
same,TD50,"rat, strain MRC, females, by gavage, site: thyroid gland, lesion: several types, types named in the paper, dosed 73 weeks, study length 77 weeks",1.39 mg/kg/day
same,TD50,"rat, strain MRC, males, by gavage, site: any site (literature study), lesion: one or several types, types not named, dosed 72 weeks, study length 80 weeks",0.0995 mg/kg/day
same,TD50,"rat, strain MRC, males, by gavage, site: colon, lesion: several types, types named in the paper, dosed 72 weeks, study length 80 weeks",1.6 mg/kg/day
same,TD50,"rat, strain MRC, males, by gavage, site: liver, lesion: several types, types named in the paper, dosed 72 weeks, study length 80 weeks",0.989 mg/kg/day
same,TD50,"rat, strain MRC, males, by gavage, site: lung, lesion: several types, types named in the paper, dosed 72 weeks, study length 80 weeks",1.1 mg/kg/day
same,TD50,"rat, strain MRC, males, by gavage, site: nasal and paranasal cavity, lesion: several types, types named in the paper, dosed 72 weeks, study length 80 weeks",1.23 mg/kg/day
same,TD50,"rat, strain MRC, males, by gavage, site: prostate, lesion: squamous-cell carcinoma, dosed 72 weeks, study length 80 weeks",2.21 mg/kg/day
same,TD50,"rat, strain MRC, males, by gavage, site: thyroid gland, lesion: several types, types named in the paper, dosed 72 weeks, study length 80 weeks",0.968 mg/kg/day
same,TD50,"rat, strain MRC, males, by gavage, site: urethra, lesion: papilloma, dosed 72 weeks, study length 80 weeks",0.878 mg/kg/day
S=C(SSSSSSC(=S)N1CCCCC1)N1CCCCC1,TD50,[1],120 mg/kg/day (inactive)
same,carcinogen call,[2],negative (inactive)
same,carcinogen call,[3],negative (inactive)
same,carcinogen call,[4],negative (inactive)
same,carcinogen call,[5],negative (inactive)
same,carcinogen call,[6],negative (inactive)
same,TD50,"mouse, strain B6C3F1, females, oral dosing, site: any site (literature study), lesion: several types, types named in the paper, dosed 76 weeks, study length 76 weeks",83.1 mg/kg/day (inactive)
same,carcinogen call,[7],negative (inactive)
same,TD50,"mouse, strain B6C3F1, females, oral dosing, site: lung, lesion: adenoma, dosed 76 weeks, study length 76 weeks",83.1 mg/kg/day (inactive)
same,TD50,[8],52.5 mg/kg/day (inactive)
same,TD50,[9],113 mg/kg/day (inactive)
same,TD50,"mouse, strain B6C3F1, males, oral dosing, site: lung, lesion: adenoma, dosed 76 weeks, study length 76 weeks",113 mg/kg/day (inactive)
CC(=O)C1C(=O)C=C(C)OC1=O (stereo not drawn),carcinogen call,[1],negative (inactive)
same,carcinogen call,[2],negative (inactive)
same,carcinogen call,[3],negative (inactive)
same,carcinogen call,[4],negative (inactive)
same,carcinogen call,[5],negative (inactive)
same,carcinogen call,[6],negative (inactive)
same,carcinogen call,"mouse, strain B6C3F1, females, oral dosing, site: any site (literature study), lesion: one or several types, types not named, dosed 76 weeks, study length 76 weeks",negative (inactive)
same,carcinogen call,[7],negative (inactive)
same,carcinogen call,"mouse, strain B6C3F1, females, oral dosing, site: lung, lesion: several types, types named in the paper, dosed 76 weeks, study length 76 weeks",negative (inactive)
same,TD50,[8],202 mg/kg/day (inactive)
same,carcinogen call,[9],negative (inactive)
same,carcinogen call,"mouse, strain B6C3F1, males, oral dosing, site: lung, lesion: several types, types named in the paper, dosed 76 weeks, study length 76 weeks",negative (inactive)
CCOC(=O)c1ccc(N)cc1,TD50,"rat, strain ACI, both sexes, in feed, site: colorectum, lesion: papilloma, dosed 94 weeks, study length 94 weeks",331 mg/kg/day
same,TD50,"rat, strain ACI, both sexes, in feed, site: colorectum, lesion: squamous-cell carcinoma, dosed 94 weeks, study length 94 weeks",1760 mg/kg/day
same,TD50,"rat, strain ACI, both sexes, in feed, site: intestine, lesion: several types, types named in the paper, dosed 94 weeks, study length 94 weeks",191 mg/kg/day
same,TD50,"rat, strain ACI, females, in feed, site: cecum, lesion: adenoma, dosed 68 weeks, study length 68 weeks",1270 mg/kg/day
same,TD50,"rat, strain ACI, females, in feed, site: colorectum, lesion: adenocarcinoma, dosed 68 weeks, study length 68 weeks",373 mg/kg/day
same,TD50,"rat, strain ACI, females, in feed, site: colorectum, lesion: adenoma, dosed 68 weeks, study length 68 weeks",977 mg/kg/day
same,TD50,"rat, strain ACI, females, in feed, site: colorectum, lesion: papilloma, dosed 68 weeks, study length 68 weeks",219 mg/kg/day
same,TD50,"rat, strain ACI, females, in feed, site: colorectum, lesion: squamous-cell carcinoma, dosed 68 weeks, study length 68 weeks",1760 mg/kg/day
same,TD50,"rat, strain ACI, females, in feed, site: urinary bladder, lesion: one or several types, types not named, dosed 68 weeks, study length 68 weeks",2560 mg/kg/day (inactive) and 1640 mg/kg/day (inactive)
same,TD50,"rat, strain ACI, males, in feed, site: cecum, lesion: adenoma, dosed 68 weeks, study length 68 weeks",4250 mg/kg/day (inactive)
same,TD50,"rat, strain ACI, males, in feed, site: colorectum, lesion: adenocarcinoma, dosed 68 weeks, study length 68 weeks",182 mg/kg/day
same,TD50,"rat, strain ACI, males, in feed, site: colorectum, lesion: adenoma, dosed 68 weeks, study length 68 weeks",1700 mg/kg/day
same,TD50,"rat, strain ACI, males, in feed, site: colorectum, lesion: squamous-cell carcinoma, dosed 68 weeks, study length 68 weeks",2050 mg/kg/day
CCNC(=O)N(C=O)CCN(C)C,TD50,"rat, strain Fischer 344, females, by gavage, site: cervix, lesion: adenocarcinoma, dosed 37 weeks, study length 102 weeks",5.35 mg/kg/day
same,TD50,"rat, strain Fischer 344, females, by gavage, site: lung, lesion: one or several types, types not named, dosed 37 weeks, study length 102 weeks",5.35 mg/kg/day
same,TD50,"rat, strain Fischer 344, females, by gavage, site: mammary gland, lesion: adenocarcinoma, dosed 37 weeks, study length 102 weeks",3.39 mg/kg/day
same,TD50,"rat, strain Fischer 344, females, by gavage, site: mammary gland, lesion: adenoma, dosed 37 weeks, study length 102 weeks",11.2 mg/kg/day
same,TD50,"rat, strain Fischer 344, females, by gavage, site: mammary gland, lesion: fibroadenoma, dosed 37 weeks, study length 102 weeks",0.704 mg/kg/day
same,TD50,"rat, strain Fischer 344, females, by gavage, site: uterus, lesion: adenoma, dosed 37 weeks, study length 102 weeks",11.2 mg/kg/day
same,TD50,"rat, strain Fischer 344, females, by gavage, site: uterus, lesion: endometrial polyp, dosed 37 weeks, study length 102 weeks",1.41 mg/kg/day
same,TD50,"rat, strain Fischer 344, males, by gavage, site: lung, lesion: one or several types, types not named, dosed 37 weeks, study length 102 weeks",2.37 mg/kg/day
same,TD50,"rat, strain Fischer 344, males, by gavage, site: skin, lesion: keratoacanthoma, dosed 37 weeks, study length 102 weeks",1.92 mg/kg/day
CC=NO,TD50,"rat, strain Fischer 344, males, in drinking water, site: liver, lesion: hyperplastic nodule, dosed 110 weeks, study length 129 weeks",445 mg/kg/day
